# Calls of active or inactive are those of the source. The rule behind the calls is not given here.
# Legend:
# [1] = test system: Rattus norvegicus; assay: Hypoglycemic activity in 48 hrs-fasted rat assessed as change in blood glucose level at dose equivalent to 102 mg of free base/kg, po measured at 5 hrs relative to control; assay type: functional
# [2] = test system: Rattus norvegicus; assay: Hypoglycemic activity in 48 hrs-fasted rat assessed as change in blood glucose level at dose equivalent to 102 mg of free base/kg, po measured at 2 hrs relative to control; assay type: functional
# [3] = test system: Rattus norvegicus; assay: Hypoglycemic activity in 48 hrs-fasted rat assessed as change in blood glucose level at dose equivalent to 102 mg of free base/kg, po measured at 4 hrs relative to control; assay type: functional
# [4] = test system: Rattus norvegicus; assay: Hypoglycemic activity in 48 hrs-fasted rat assessed as change in blood glucose level at dose equivalent to 102 mg of free base/kg, po measured at 3 hrs relative to control; assay type: functional
# [5] = test system: Rattus norvegicus; assay: Hypoglycemic activity in 48 hrs-fasted rat assessed as change in blood glucose level at dose equivalent to 102 mg of free base/kg, po measured at 1 hr relative to control; assay type: functional
# [6] = test system: Rattus norvegicus; assay: Hypoglycemic activity in 48 hrs-fasted rat assessed as change in blood glucose level at dose equivalent to 68 mg of free base/kg, po measured at 3 hrs relative to control; assay type: functional
# [7] = test system: Rattus norvegicus; assay: Hypoglycemic activity in 48 hrs-fasted rat assessed as change in blood glucose level at dose equivalent to 68 mg of free base/kg, po measured at 5 hrs relative to control; assay type: functional
# [8] = test system: Rattus norvegicus; assay: Hypoglycemic activity in 48 hrs-fasted rat assessed as change in blood glucose level at dose equivalent to 68 mg of free base/kg, po measured at 4 hrs relative to control; assay type: functional
# [9] = test system: Rattus norvegicus; assay: Toxicity in 48 hrs-fasted rat assessed as elevation in hepatic triglyceride level at dose equivalent to 102 mg of free base/kg, po relative to control; assay type: organism-based; conditions: in vivo
# [10] = test system: Rattus norvegicus; assay: Hypoglycemic activity in 48 hrs-fasted rat assessed as change in blood glucose level at dose equivalent to 68 mg of free base/kg, po measured at 2 hrs relative to control; assay type: functional
# [11] = test system: Rattus norvegicus; assay: Toxicity in streptozotocin-induced diabetic rat model assessed as elevation in hepatic triglyceride level up to dose equivalent to 136 mg of free base/kg, po relative to control; assay type: organism-based; conditions: in vivo
# [12] = test system: Rattus norvegicus; assay: Toxicity in 48 hrs-fasted rat assessed as elevation in hepatic triglyceride level at dose equivalent to 34 mg of free base/kg, po relative to control; assay type: organism-based; conditions: in vivo
# [13] = test system: Rattus norvegicus; assay: Hypoglycemic activity in 48 hrs-fasted rat assessed as change in blood glucose level at dose equivalent to 68 mg of free base/kg, po measured at 1 hr relative to control; assay type: functional
# [14] = test system: Kidney; assay: Inhibition of glucose production from lactate in rat kidney cortex at 10^-4 M; assay type: functional, tissue-based
# [15] = test system: Rattus norvegicus; assay: Hypoglycemic activity in 48 hrs-fasted rat assessed as change in blood glucose level at dose equivalent to 34 mg of free base/kg, po measured at 5 hrs relative to control; assay type: functional, organism-based
# [16] = organism: Rattus norvegicus; assay: Hypoglycemic activity in normal fed rat; assay type: functional, organism-based
# [17] = organism: Rattus norvegicus; assay: Hypoglycemic activity in streptozotocin-induced diabetic rat model; assay type: functional, organism-based
Structure (SMILES),Activity [1],Activity [2],Activity [3],Activity [4],Activity [5],other results
CN(C)/C=N/c1cccc(-c2c[n+]3ccccc3s2)c1.O.[O-][Cl+3]([O-])([O-])[O-],22%,0%,-1%,-1%,1%,–
O.[Cl-].c1csc(-c2c[n+]3ccccc3s2)c1,0%,-2%,-13%,-13%,1%,–
Nc1ccc(-c2c[n+]3ccccc3s2)cc1.O.[O-][Cl+3]([O-])([O-])[O-],-14%,1%,-7%,-20%,-8%,–
O=C([O-])C(F)(F)F.c1ccc(-c2c[n+]3ccccc3s2)cc1,–,-9%,–,–,-7%,Activity [6]: -15%; Activity [7]: -24%; Activity [8]: -18%
Cc1ccc[n+]2cc(-c3ccccc3)sc12.O.[O-][Cl+3]([O-])([O-])[O-],-50%,-42%,-59%,-51%,-17%,Activity [9]: 200%
O=S(=O)([O-])c1ccc(-c2c[n+]3ccccc3s2)s1,6%,5%,-6%,-5%,-6%,–
Brc1ccc(-c2c[n+]3ccccc3s2)cc1.O.O=S(=O)([O-])O,1%,-4%,-5%,-1%,9%,–
[O-][Cl+3]([O-])([O-])[O-].c1ccc(-c2c[n+]3ccccc3s2)cc1,–,–,–,–,–,Activity [10]: -8%; Activity [11]: Non-toxic; Activity [12]: Toxic; Activity [6]: -17%; Activity [9]: 200%; Activity [7]: -28%; Activity [8]: -33%; Activity [13]: -4%
CC(C)Oc1cccc(-c2c[n+]3ccccc3s2)c1.[O-][Cl+3]([O-])([O-])[O-],-10%,-1%,9%,-4%,4%,–
O.[O-][Cl+3]([O-])([O-])[O-].c1ccc(-c2csc3cccc[n+]23)cc1,-19%,-16%,-12%,-28%,-12%,–
CC(=O)Nc1cccc(-c2c[n+]3ccccc3s2)c1.[O-][Cl+3]([O-])([O-])[O-],4%,8%,9%,3%,12%,–
CS(=O)(=O)c1ccc(-c2c[n+]3ccccc3s2)cc1.[O-][Cl+3]([O-])([O-])[O-],-2%,-8%,-6%,-6%,3%,–
[O-][Cl+3]([O-])([O-])[O-].c1cc[n+]2ccsc2c1,-12%,-20%,-13%,-15%,-14%,–
Nc1cccc(-c2c[n+]3ccccc3s2)c1.[O-][Cl+3]([O-])([O-])[O-],-8%,-16%,-7%,-8%,-10%,–
O.O=S(=O)([O-])O.O=[N+]([O-])c1cccc(-c2c[n+]3ccccc3s2)c1,0%,-7%,-6%,-6%,-10%,–
O.O=S(=O)([O-])O.c1ccc(-c2c[n+]3ccccc3s2)cc1,–,–,–,–,–,Activity [10]: -16%; Activity [6]: -21%; Activity [7]: -30%; Activity [8]: -39%; Activity [13]: -6%
O.[Cl-].c1ccc(-c2c[n+]3ccccc3s2)cc1,–,–,–,–,–,Activity [10]: -13%; Activity [6]: -31%; Activity [7]: -39%; Activity [8]: -39%; Activity [13]: -4%
CSc1ccc(-c2c[n+]3ccccc3s2)cc1.O.[O-][Cl+3]([O-])([O-])[O-],-2%,-11%,-6%,-14%,-9%,–
c1ccc(-c2c[n+]3ccccc3s2)cc1,–,–,–,–,–,Activity [14]: Active; Activity [15]: Active; Activity [16]: Active; Activity [17]: Active
Cc1cc[n+]2cc(-c3ccccc3)sc2c1.[O-][Cl+3]([O-])([O-])[O-],-22%,-4%,-29%,-28%,14%,–
O.[Cl-].c1ccc(-c2ccc(-c3c[n+]4ccccc4s3)cc2)cc1,3%,-12%,13%,-12%,-7%,–
O=S(=O)([O-])c1ccc(-c2ccc(-c3c[n+]4ccccc4s3)cc2)cc1,4%,3%,2%,13%,3%,–
Cc1ccc2sc(-c3ccccc3)c[n+]2c1.[O-][Cl+3]([O-])([O-])[O-],-16%,-30%,-27%,-26%,19%,–

# Reference: ChEMBL document CHEMBL3244075, “Synthesis and hypoglycemic activity of some substituted 2-arylthiazolo[3,2-a]pyridinium salts” (J Med Chem, 1978)
